compound: CC1(COc2ccc3c(c2)ncn3-c2ccc3cccc(N4CCC(N)CC4)c3n2)COC1 [Crenolanib]; experiment: relative viability (nuclei count vs DMSO), 5 days (fraction); higher = more cells survive; conditions: 0.01 µM
Method in brief: (§1)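 A plate was accepted only when its control CV was below 25% and the cells had doubled at least once. Viability is defined from nuclear counts as treated wells divided by vehicle wells, with the median taken across plates. That median covers lung cancer cell lines grown in 1536-well plates, dosed by pinning at five √10-spaced library-drug concentrations, and counted in MetaXpress from 4× Hoechst images after 5 days.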

Cell Line	relative viability
EKVX	1.06
NCI-H1650	0.927
NCI-H1944	1.06
NCI-H1993	0.985
SK-LU-1	1.03
ABC-1	1.08
NCI-H358	1.03
NCI-H661	0.962
RERF-LC-KJ	1.04

same assay, conditions: 0.03162 µM

Cell Line	relative viability
EKVX	0.871
NCI-H1650	0.955
NCI-H1944	0.934
NCI-H1993	0.889
SK-LU-1	1.04
ABC-1	0.876
NCI-H358	1.04
NCI-H661	1
RERF-LC-KJ	1.01

same assay, conditions: 0.1 µM

Cell Line	relative viability
EKVX	0.916
NCI-H1650	1.03
NCI-H1944	0.964
NCI-H1993	0.919
SK-LU-1	0.755
ABC-1	0.855
NCI-H358	0.856
NCI-H661	1.02
RERF-LC-KJ	1

same assay, conditions: 0.3162 µM

Cell Line	relative viability
EKVX	1.05
NCI-H1650	0.867
NCI-H1944	0.985
NCI-H1993	1.06
SK-LU-1	1.08
ABC-1	0.985
NCI-H358	0.924
NCI-H661	1.04
RERF-LC-KJ	1.06

same assay, conditions: 1 µM

Cell Line	relative viability
EKVX	1
NCI-H1650	0.876
NCI-H1944	0.773
NCI-H1993	0.925
SK-LU-1	1.04
ABC-1	0.795
NCI-H358	0.672
NCI-H661	1.01
RERF-LC-KJ	1.02

compound: O=C1NC(=O)[C@@H](c2cn3c4c(cccc24)CCC3)[C@@H]1c1c[nH]c2ccccc12 [Tivantinib]; experiment: as above; conditions: 0.01 µM
Method in brief: as §1

Cell Line	relative viability
EKVX	0.953
NCI-H1650	0.956
NCI-H1944	0.922
NCI-H1993	1
SK-LU-1	1.08
ABC-1	0.887
NCI-H358	0.94
NCI-H661	1.07
RERF-LC-KJ	1.01

same assay, conditions: 0.03162 µM

Cell Line	relative viability
EKVX	0.957
NCI-H1650	0.813
NCI-H1944	0.875
NCI-H1993	0.897
SK-LU-1	1.08
ABC-1	0.98
NCI-H358	0.909
NCI-H661	0.971
RERF-LC-KJ	1.03

same assay, conditions: 0.1 µM

Cell Line	relative viability
EKVX	0.936
NCI-H1650	0.829
NCI-H1944	0.882
NCI-H1993	0.927
SK-LU-1	0.987
ABC-1	0.821
NCI-H358	0.865
NCI-H661	0.956
RERF-LC-KJ	0.996

same assay, conditions: 0.3162 µM

Cell Line	relative viability
EKVX	0.371
NCI-H1650	0.849
NCI-H1944	0.717
NCI-H1993	0.721
SK-LU-1	1.01
ABC-1	0.805
NCI-H358	0.355
NCI-H661	0.811
RERF-LC-KJ	0.763

compound: CC1(COc2ccc3c(c2)ncn3-c2ccc3cccc(N4CCC(N)CC4)c3n2)COC1 [Crenolanib] + CS(=O)(=O)N1CCN(Cc2cc3nc(-c4cccc5[nH]ncc45)nc(N4CCOCC4)c3s2)CC1 [Pictilisib] (partner 1 µM); experiment: relative viability (nuclei count vs DMSO), 5 days (fraction); higher = more cells survive; conditions: first compound 0.01 µM
Method in brief: (§2)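 Each reported value is a median over duplicate plates. It expresses relative viability: treated-well nuclei count divided by vehicle-well nuclei count. Lung cancer cell lines in 1536-well plates were dosed by pin tool a day after seeding, alone with one drug or with a fixed anchor-drug dose plus five library-drug doses (not always all listed) in √10 steps, and nuclei were counted after 5 days.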

Cell Line	relative viability
EKVX	0.466
NCI-H1650	0.731
NCI-H1944	0.367
NCI-H1993	0.778
SK-LU-1	0.609
ABC-1	0.837
NCI-H358	0.4
NCI-H661	0.476
RERF-LC-KJ	0.548

same assay, conditions: first compound 0.03162 µM

Cell Line	relative viability
EKVX	0.491
NCI-H1650	0.68
NCI-H1944	0.351
NCI-H1993	0.805
SK-LU-1	0.494
ABC-1	0.63
NCI-H358	0.309
NCI-H661	0.336
RERF-LC-KJ	0.591

same assay, conditions: first compound 0.1 µM

Cell Line	relative viability
EKVX	0.364
NCI-H1650	0.583
NCI-H1944	0.37
NCI-H1993	0.71
SK-LU-1	0.432
ABC-1	0.83
NCI-H358	0.332
NCI-H661	0.368
RERF-LC-KJ	0.538

same assay, conditions: first compound 0.3162 µM

Cell Line	relative viability
EKVX	0.487
NCI-H1650	0.472
NCI-H1944	0.346
NCI-H1993	0.858
SK-LU-1	0.62
ABC-1	0.692
NCI-H358	0.326
NCI-H661	0.378
RERF-LC-KJ	0.621

same assay, conditions: first compound 1 µM

Cell Line	relative viability
EKVX	0.442
NCI-H1650	0.327
NCI-H1944	0.304
NCI-H1993	0.825
SK-LU-1	0.611
ABC-1	0.686
NCI-H358	0.311
NCI-H661	0.414
RERF-LC-KJ	0.687

compound: O=C1NC(=O)[C@@H](c2cn3c4c(cccc24)CCC3)[C@@H]1c1c[nH]c2ccccc12 [Tivantinib] + CS(=O)(=O)CCNCc1ccc(-c2ccc3ncnc(Nc4ccc(OCc5cccc(F)c5)c(Cl)c4)c3c2)o1 [Lapatinib] (partner 2 µM); experiment: as above; conditions: first compound 0.01 µM
Method in brief: as §2

Cell Line	relative viability
EKVX	0.194
NCI-H1650	0.879
NCI-H1944	0.832
NCI-H1993	0.94
SK-LU-1	1.06
NCI-H358	0.53
NCI-H661	0.579
RERF-LC-KJ	0.911

same assay, conditions: first compound 0.03162 µM

Cell Line	relative viability
EKVX	0.225
NCI-H1650	0.547
NCI-H1944	0.742
NCI-H1993	0.74
SK-LU-1	0.856
ABC-1	1.13
NCI-H358	0.42
NCI-H661	0.46
RERF-LC-KJ	0.9

same assay, conditions: first compound 0.1 µM

Cell Line	relative viability
EKVX	0.225
NCI-H1650	0.702
NCI-H1944	0.895
NCI-H1993	0.706
SK-LU-1	0.835
ABC-1	1.17
NCI-H358	0.418
NCI-H661	0.474
RERF-LC-KJ	0.872

same assay, conditions: first compound 0.3162 µM

Cell Line	relative viability
EKVX	0.176
NCI-H1650	0.861
NCI-H1944	0.906
NCI-H1993	0.852
SK-LU-1	0.855
ABC-1	0.869
NCI-H358	0.403
RERF-LC-KJ	0.759
